Assay in all cases: NCI anticancer screen, dose series, 48 h
Test [1] relates to 786-0 renal.
Test [2] has as its system A549 NSCLC.
In test [3] the test system is LOX IMVI melanoma.
Test [4] relates to M14 melanoma.
Test [5] concerns OVCAR-3 ovarian.
Test [6] deals with OVCAR-4 ovarian.
For test [7], the system named is OVCAR-5 ovarian.
For test [8], the system named is RPMI-8226 leukemia.
For test [9], the system named is SK-MEL-28 melanoma.

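Cultured in 96-well plates, cells were exposed to test compound for 48 hours across five concentrations. At the TGI there is no net growth.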 Some results are limits rather than exact numbers.

For `CC1(C)[C@@H](Cn2cnc3c(Cl)nc(N)nc32)CC[C@@]1(C)CO`, the TGI in test [1] was more than 100 µM; in test [2] it was more than 100 µM; in [3], 80.9 µM; in test [4], more than 100 µM; in [5] it was more than 100 µM; in test [6], more than 100 µM. Moreover, the TGI is more than 100 µM in [7], 89.2 µM in test [8] and more than 100 µM in test [9].
For `COc1cc(C=C2C(=O)NC(=S)NC2=O)cc(OC)c1OC`, the TGI in test [1], in test [2], in [3], in test [4], in test [5] and in [6] was more than 100 µM in each case. Moreover, the TGI in test [7], in [8] and in test [9] was more than 100 µM in each case.
With `COC(=O)C1=C(C)NC(C)=C([N+](=O)[O-])C1c1cccc(N=O)c1` (centres undefined), the TGI in test [1] was 27.2 µM; in [2], 40.1 µM; in [3], 30 µM; in test [4] it was 25.8 µM; in [5], 28.6 µM; in test [6], 24.7 µM. In addition, the TGI in test [7] is 30.5 µM; in test [8], more than 100 µM; in test [9], 32 µM.
On to `C=C(C)[C@@]1(O[Si](C)(C)C)CCCC[C@@H]1CC(Sc1ccccc1)Sc1ccccc1`, for which the TGI in test [1] is 28.6 µM; in test [2], 23.1 µM; in test [3], 37.2 µM; in [4], 31.3 µM; in test [5], 27.7 µM; in [6], 26.2 µM. The TGI in test [7] was found to be 30.3 µM; in [8], 49.3 µM; in [9], 37 µM.
With `c1ccc(C2=Nn3c(CCCCCCCCc4nnc5n4N=C(c4ccccc4)CS5)nnc3SC2)cc1`, the TGI is 33.2 µM in [1]; more than 100 µM in test [2]; more than 100 µM in test [3]; more than 100 µM in test [4]; more than 100 µM in test [5]; more than 100 µM in test [6]. Also, the TGI in test [7], in [8] and in [9] was more than 100 µM each time.
In the case of `COC(=O)c1cc(C)ccc1CC(Cc1ccc(C)cc1)C(=O)OC` (centres undefined), the TGI in [1], in test [2], in test [3], in [4], in test [5] and in test [6] was more than 100 µM in each case. For the same compound, the TGI in [7] is more than 85.4 µM; in [8] it was more than 100 µM; in [9] it was more than 100 µM.
With `COC(=O)c1cc2c(cc1CC(Cc1ccc3c(c1)CCC3)C(=O)OC)CCC2` (centres undefined), the TGI was more than 100 µM in test [1]; more than 100 µM in test [2]; more than 100 µM in test [3]; more than 100 µM in [4]; more than 100 µM in test [5]; 81.8 µM in test [6]. Moreover, the TGI in test [7] is more than 100 µM; in test [8], 66.8 µM; in test [9] it was more than 100 µM.
As for `O=C(O)c1c2c(cc3c1CC1(Cc4ccccc4C1=O)C3)CCC2` (centres undefined), the TGI in test [1] was more than 100 µM; in test [2] it was more than 100 µM; in test [3], more than 89.1 µM; in test [4], 70.7 µM; in test [5], more than 100 µM; in test [6] it was more than 100 µM. For the same compound, the TGI is more than 100 µM in test [7], 52.3 µM in test [8] and more than 100 µM in test [9].
With `CC(C)CCn1nc(N)c2nc3ccccc3nc21`, the TGI in [1], in test [2], in test [3], in test [4], in test [5] and in [6] was more than 100 µM in each case. The TGI in [7], in test [8] and in [9] was more than 100 µM each time.
Consider `COc1cc(OCc2ccc3nc(OC)c(OC)nc3c2)cc(OC)c1OC`, for which the TGI in test [1], in test [2], in test [3], in test [4], in test [5] and in [6] was more than 10 µM each time. The TGI in test [7], in test [8] and in [9] was more than 10 µM in each case.
Regarding `O=C(CCCN1CCC2(CC1)C(=NC1CCCCC1)NC(=O)N2c1ccccc1)c1ccc(F)cc1`, the TGI was 45 µM in [1]; more than 100 µM in [2]; 30 µM in test [3]; 32.8 µM in [4]; 31.6 µM in test [5]; more than 100 µM in test [6]. Moreover, the TGI came out at 55 µM in test [7], 49.5 µM in test [8] and 34.2 µM in [9].
As to `Nc1nc(Nc2ccc(Cl)cc2)sc1C(=O)c1cccs1`, the TGI in test [1] is more than 100 µM; in [2], more than 100 µM; in test [3], more than 100 µM; in test [4], more than 100 µM; in [5] it was 72.1 µM; in test [6], more than 100 µM. Besides, the TGI in test [7], in test [8] and in [9] was more than 100 µM throughout.
For the compound `N#CCCN(CCC#N)c1ccc(/C=C2\SC(=S)NC2=O)cc1Br`, the TGI in [1] is more than 100 µM; in [2] it was more than 100 µM; in [3] it was 80.7 µM; in [4], more than 100 µM; in test [5] it was more than 100 µM; in test [6] it was more than 100 µM. Moreover, the TGI in [7], in [8] and in test [9] was more than 100 µM each time.
For `c1ccc(-c2cnc(-c3ccc(-c4ncc(-c5ccccc5)o4)cc3)o2)cc1`, the TGI in test [1], in test [2], in [3], in test [4], in test [5] and in [6] was more than 100 µM in each case. The TGI in test [7], in test [8] and in [9] was more than 100 µM throughout.
Regarding `N#CC(=N)c1ncn(-c2ccccc2N)c1N`, the TGI in [1], in test [2], in test [3], in [4], in [5] and in test [6] was more than 100 µM each time. The TGI in [7], in [8] and in [9] was more than 100 µM each time.
As for `CCOC(=O)C1(C(=O)OCC)CCCN1C(=O)[C@H](CNC(=O)OC(C)(C)C)NC(=O)OCc1ccccc1`, the TGI in [1], in [2], in test [3], in test [4], in test [5] and in test [6] was more than 100 µM in each case. The TGI in [7], in [8] and in test [9] was more than 100 µM throughout.
Consider `O=C1CCCc2cc3c(cc21)CC1(C3)Cc2ccc3c(c2C1)C(=O)CCC3` (centres undefined), for which the TGI is more than 100 µM in [1]; more than 100 µM in test [2]; more than 100 µM in test [3]; 36.3 µM in test [4]; 69.9 µM in [5]; more than 100 µM in test [6]. Moreover, the TGI in [7] was more than 100 µM; in test [8], 50.8 µM; in [9], 80.6 µM.
For `CN(C)P(=O)(Oc1occc1C(O)Cc1ccccc1)N(C)C` (centres undefined), the TGI in [1], in test [2], in test [3], in test [4], in [5] and in [6] was more than 100 µM throughout. Also, the TGI in test [7], in test [8] and in [9] was more than 100 µM in each case.
For `COC(=O)C1OC(O[C@H]2CC[C@]3(C)[C@H]4CC=C5[C@@H]6CC(C)(C)CC[C@]6(C(=O)OC6OCC(O)C(O)C6OC6OC(C)C(OC7OCC(OC8OCC(O)C(O)C8O)C(O)C7O)C(O)C6O)[C@H](O)C[C@@]5(C)[C@]4(C)CC[C@H]3C2(C)C)C(O)C(O)C1O` (some centres undefined), the TGI in test [1] was 20.2 µM; in test [2], 9.63 µM; in test [3], 22 µM; in [4], 3.56 µM; in [5], 20.9 µM; in test [6], 21.6 µM. For the same compound, the TGI in test [7] was 8.01 µM; in test [8], more than 50.7 µM; in test [9] it was 4.24 µM.
Take `CC(C)(C)C(=O)C(Cc1ccccc1)C(=O)C(C)(C)C`: the TGI in test [1], in [2], in [3], in test [4], in test [5] and in test [6] was more than 100 µM in each case. The TGI in [7], in test [8] and in [9] was more than 100 µM in each case.
As to `CC(C)(C)c1ccc(OCC(=O)O)c(Cl)c1`, the TGI in test [1], in test [2], in test [3], in test [4], in [5] and in [6] was more than 100 µM in each case. The TGI in [7], in test [8] and in test [9] was more than 100 µM each time.

The values above are taken from PubChem BioAssay (NCI).
